In patent publication US10494368B2, “Pesticidally active tetracyclic derivatives with sulfur containing substituents” (Syngenta Participations AG, priority 2015, dated 2019):

How the values were obtained:
Assay type in all cases: in vivo
[1] = test system: Diabrotica Balteata (Corn Root Worm); experiment: Diabrotica balteata on maize sprouts, spray; settings: 96 h, application rate 200 ppm, L2 larvae on maize sprouts, 4 days after infestation, read-out: effect in at least one of the two categories (mortality or growth inhibition)
Procedure: Maize sprouts placed onto an agar layer in 24-well microtiter plates were treated with aqueous test solutions prepared from 10′000 ppm DMSO stock solutions by spraying. After drying, the plates were infested with L2 larvae (6 to 10 per well). The samples were assessed for mortality and growth inhibition in comparison to untreated samples 4 days after infestation.
(§1) The following compounds gave an effect of at least 80% in at least one of the two categories (mortality or growth inhibition) at an application rate of 200 ppm: […]

[2] = test system: Euschistus heros (Neotropical Brown Stink Bug); experiment: Euschistus heros on soybean leaves, spray; settings: 120 h, application rate 200 ppm, N2 nymphs on soybean leaves, 5 days after infestation, read-out: effect in at least one of the two categories (mortality or growth inhibition)
Procedure: Soybean leaves on agar in 24-well microtiter plates were sprayed with aqueous test solutions prepared from 10′000 ppm DMSO stock solutions. After drying the leaves were infested with N2 nymphs. The samples were assessed for mortality and growth inhibition in comparison to untreated samples 5 days after infestation.
as §1

[3] = test system: Myzus persicae (Green Peach Aphid); experiment: Myzus persicae feeding/contact activity on sunflower leaf discs; settings: foliar, 144 h, application rate 200 ppm, aphid population of mixed ages on sunflower leaf discs, 6 days after infestation
Procedure: Feeding/Contact activity Sunflower leaf discs were placed onto agar in a 24-well microtiter plate and sprayed with aqueous test solutions prepared from 10′000 ppm DMSO stock solutions. After drying, the leaf discs were infested with an aphid population of mixed ages. The samples were assessed for mortality 6 days after infestation.

[4] = test system: Plutella xylostella (Diamond Back Moth); experiment: Plutella xylostella on artificial diet; settings: 120 h, application rate 200 ppm, L2 larvae on artificial diet, 5 days after infestation, read-out: effect in at least one of the two categories (mortality or growth inhibition)
Procedure: 24-well microtiter plates with artificial diet were treated with aqueous test solutions prepared from 10′000 ppm DMSO stock solutions by pipetting. After drying, the plates were infested with L2 larvae (10 to 15 per well). The samples were assessed for mortality and growth inhibition in comparison to untreated samples 5 days after infestation.
as §1

[5] = test system: Spodoptera littoralis (Egyptian Cotton Leaf Worm); experiment: Spodoptera littoralis on cotton leaf discs, spray; settings: foliar, 72 h, application rate 200 ppm, L1 larvae on cotton leaf discs, 3 days after infestation
Procedure: Cotton leaf discs were placed onto agar in 24-well microtiter plates and sprayed with aqueous test solutions prepared from 10′000 ppm DMSO stock solutions. After drying the leaf discs were infested with five L1 larvae. The samples were assessed for mortality, anti-feeding effect, and growth inhibition in comparison to untreated samples 3 days after infestation. Control of Spodoptera littoralis by a test sample is given when at least one of the categories mortality, anti-feedant effect, and growth inhibition is higher than the untreated sample.

[6] = test system: Spodoptera littoralis (Egyptian Cotton Leaf Worm); experiment: Spodoptera littoralis, uptake by lettuce roots from agar; settings: 144 h, test rate 12.5 ppm, compound absorbed by lettuce roots, 6 days after infestation, read-out: effect in at least one of the three categories (mortality, anti-feeding, or growth inhibition)
Text: Test compounds were applied by pipette from 10′000 ppm DMSO stock solutions into 24-well plates and mixed with agar. Lettuce seeds were placed onto the agar and the multi well plate was closed by another plate which contained also agar. After 7 days the compound was absorbed by the roots and the lettuce grew into the lid plate. The lettuce leaves were then cut off into the lid plate. Spodoptera eggs were pipetted through a plastic stencil onto a humid gel blotting paper and the lid plate was closed with it. The samples were assessed for mortality, anti-feedant effect and growth inhibition in comparison to untreated samples 6 days after infestation.
The following compounds gave an effect of at least 80% in at least one of the three categories (mortality, anti-feeding, or growth inhibition) at a test rate of 12.5 ppm: A3, A4, A5, A6, A8, A10, B3, B4, B5 and C2.

[7] = test system: Aedes aegypti (Yellow Fever Mosquito); experiment: Aedes aegypti adult contact test on dried deposits; settings: application rate 200 ppm in ethanol, adult females, after 48 h and/or 24 h
Procedure: Test solutions, at an application rate of 200 ppm in ethanol, were applied to 12 well tissue culture plates. Once the deposits were dry, five, two to five day old adult female Aedes aegypti were added to each well, and sustained with a 10% sucrose solution in a cotton wool plug. Assessment of knockdown was made one hour after introduction, and mortality was assessed at 24 and 48 hours after introduction.
The following compounds gave at least 80% control of Aedes aegypti after 48 h and/or 24 h: […]

[8] = test system: Bemisia tabaci (Cotton White Fly); experiment: Bemisia tabaci feeding/contact activity on cotton leaf discs; settings: foliar, 144 h, application rate 200 ppm, adult white flies on cotton leaf discs, 6 days after incubation
Procedure: Feeding/contact activity Cotton leaf discs were placed on agar in 24-well microtiter plates and sprayed with aqueous test solutions prepared from 10′000 ppm DMSO stock solutions. After drying the leaf discs were infested with adult white flies. The samples were checked for mortality 6 days after incubation.

CCS(=O)(=O)c1c(-c2nc3cc(C(F)(F)F)cnc3n2C)sc2cc(SC(F)(F)F)ccc12 [Compound A10, 2-[3-ethylsulfonyl-6-(trifluoromethylsulfanyl)benzothiophen-2-yl]-3-methyl-6-(trifluoromethyl)imidazo[4,5-b]pyridine]
≥ 80%: percent effect (mortality or growth inhibition) at 200 ppm [1] | percent effect (mortality or growth inhibition) at 200 ppm [2] | mortality at 200 ppm [3] | percent effect (mortality or growth inhibition) at 200 ppm [4] | percent control (mortality, anti-feedant effect or growth inhibition) at 200 ppm [5] | percent effect (mortality, anti-feeding or growth inhibition) at 12.5 ppm [6] | pest or weed control at 200 ppm [7]

CCSc1c(-c2nc3cc(C(F)(F)F)cnc3n2C)sc2cc(C(F)(F)F)ccc12 [Compound A5]
≥ 80%: percent effect (mortality or growth inhibition) at 200 ppm [1] | percent effect (mortality or growth inhibition) at 200 ppm [2] | percent effect (mortality or growth inhibition) at 200 ppm [4] | percent control (mortality, anti-feedant effect or growth inhibition) at 200 ppm [5] | percent effect (mortality, anti-feeding or growth inhibition) at 12.5 ppm [6] | pest or weed control at 200 ppm [7]

CCS(=O)(=O)c1c(-c2nc3cc(C(F)(F)F)cnc3n2C)sc2ccccc12 [Compound A2, 2-(3-ethylsulfonylbenzothiophen-2-yl)-3-methyl-6-(trifluoromethyl)imidazo [4,5-b] pyridine]
≥ 80%: percent effect (mortality or growth inhibition) at 200 ppm [1] | percent effect (mortality or growth inhibition) at 200 ppm [2] | mortality at 200 ppm [3] | percent effect (mortality or growth inhibition) at 200 ppm [4] | percent control (mortality, anti-feedant effect or growth inhibition) at 200 ppm [5]

CCS(=O)(=O)c1c(-c2nc3cc(SC(F)(F)F)ncc3n2C)sc2cc(Br)ccc12 [Compound B5, 2-(6-bromo-3-ethylsulfonyl-benzothiophen-2-yl)-3-methyl-6-(trifluoromethylsulfanyl)imidazo[4,5-c]pyridine]
≥ 80%: mortality at 200 ppm [8] | percent effect (mortality or growth inhibition) at 200 ppm [1] | percent effect (mortality or growth inhibition) at 200 ppm [2] | mortality at 200 ppm [3] | percent effect (mortality or growth inhibition) at 200 ppm [4] | percent control (mortality, anti-feedant effect or growth inhibition) at 200 ppm [5] | percent effect (mortality, anti-feeding or growth inhibition) at 12.5 ppm [6] | pest or weed control at 200 ppm [7]

CCS(=O)(=O)c1c(-c2nc3cc(SC(F)(F)F)cnc3n2C)sc2cc(Br)ccc12 [Compound A4, 2-(6-bromo-3-ethylsulfonyl-benzothiophen-2-yl)-3-methyl-6-(trifluoromethylsulfanyl)imidazo[4,5-b]pyridine]
≥ 80%: mortality at 200 ppm [8] | percent effect (mortality or growth inhibition) at 200 ppm [1] | percent effect (mortality or growth inhibition) at 200 ppm [2] | mortality at 200 ppm [3] | percent effect (mortality or growth inhibition) at 200 ppm [4] | percent control (mortality, anti-feedant effect or growth inhibition) at 200 ppm [5] | percent effect (mortality, anti-feeding or growth inhibition) at 12.5 ppm [6] | pest or weed control at 200 ppm [7]

CCS(=O)(=O)c1c(-c2nc3cc(C(F)(F)F)ccc3n2C)sc2cc(C(F)(F)F)ccc12 [Compound C2]
≥ 80%: mortality at 200 ppm [8] | percent effect (mortality or growth inhibition) at 200 ppm [1] | percent effect (mortality or growth inhibition) at 200 ppm [4] | percent control (mortality, anti-feedant effect or growth inhibition) at 200 ppm [5] | percent effect (mortality, anti-feeding or growth inhibition) at 12.5 ppm [6] | pest or weed control at 200 ppm [7]

CCS(=O)(=O)c1c(-c2nc3cc(C(F)(F)F)cnc3n2C)sc2cc(C(F)(F)C(F)(F)F)ccc12 [Compound A12]
≥ 80%: percent effect (mortality or growth inhibition) at 200 ppm [1] | percent effect (mortality or growth inhibition) at 200 ppm [2] | percent effect (mortality or growth inhibition) at 200 ppm [4] | percent control (mortality, anti-feedant effect or growth inhibition) at 200 ppm [5] | pest or weed control at 200 ppm [7]

CCS(=O)(=O)c1c(-c2nc3cc(C(F)(F)F)cnc3n2C)sc2cc(-n3ccc(C(F)(F)F)n3)ccc12 [Compound A9, 2-[3-ethylsulfonyl-6-[3-(trifluoromethyl)pyrazol-1-yl]benzothiophen-2-yl]-3-methyl-6-(trifluoromethyl)imidazo[4,5-b]pyridine]
≥ 80%: percent effect (mortality or growth inhibition) at 200 ppm [1] | percent effect (mortality or growth inhibition) at 200 ppm [4] | percent control (mortality, anti-feedant effect or growth inhibition) at 200 ppm [5]

CCS(=O)(=O)c1c(-c2nc3cc(C(F)(F)F)cnc3n2C)sc2cc(C3CC3)ccc12 [Compound A11, 2-(6-cyclopropyl-3-ethylsulfonyl-benzothiophen-2-yl)-3-methyl-6-(trifluoromethyl)imidazo[4,5-b]pyridine]
≥ 80%: percent effect (mortality or growth inhibition) at 200 ppm [1] | percent effect (mortality or growth inhibition) at 200 ppm [2] | mortality at 200 ppm [3] | percent effect (mortality or growth inhibition) at 200 ppm [4] | percent control (mortality, anti-feedant effect or growth inhibition) at 200 ppm [5]

CCSc1c(-c2nc3cc(C(F)(F)F)cnc3n2C)sc2ccccc12 [Compound A1, 2-(3-ethylsulfanylbenzothiophen-2-yl)-3-methyl-6-(trifluoromethyl)imidazo[4,5-b]pyridine]
≥ 80%: percent effect (mortality or growth inhibition) at 200 ppm [1] | mortality at 200 ppm [3]

CCSc1c(-c2nc3cc(C(F)(F)F)ccc3n2C)sc2cc(C(F)(F)F)ccc12 [Compound C1]
≥ 80%: percent effect (mortality or growth inhibition) at 200 ppm [1] | percent effect (mortality or growth inhibition) at 200 ppm [4] | percent control (mortality, anti-feedant effect or growth inhibition) at 200 ppm [5]

CCSc1c(-c2nc3cc(C(F)(F)F)cnc3n2C)sc2cc(Br)ccc12 [Compound A7, 2-(6-bromo-3-ethylsulfanyl-benzothiophen-2-yl)-3-methyl-6-(trifluoromethyl)imidazo[4,5-b]pyridine]
≥ 80%: percent effect (mortality or growth inhibition) at 200 ppm [1] | percent effect (mortality or growth inhibition) at 200 ppm [2] | percent effect (mortality or growth inhibition) at 200 ppm [4] | percent control (mortality, anti-feedant effect or growth inhibition) at 200 ppm [5] | pest or weed control at 200 ppm [7]

CCS(=O)(=O)c1c(-c2nc3cnc(C(F)(F)F)cc3n2C)sc2ccccc12 [Compound B2, 2-(3-ethylsulfonylbenzothiophen-2-yl)-1-methyl-6-(trifluoromethyl)imidazo[4,5-c]pyridine]
≥ 80%: percent effect (mortality or growth inhibition) at 200 ppm [1] | percent effect (mortality or growth inhibition) at 200 ppm [2] | mortality at 200 ppm [3] | percent effect (mortality or growth inhibition) at 200 ppm [4] | percent control (mortality, anti-feedant effect or growth inhibition) at 200 ppm [5]
